Literature values, collected in patent publication US20220031861A1, “COMBINATION THERAPY OF DIFFUSE LARGE B-CELL LYMPHOMA COMPRISING AN ANTI-CD79B IMMUNOCONJUGATES, AN ALKYLATING AGENT AND AN ANTI-CD20 ANTIBODY” (priority 2018, published 2022).

System: R/R DLBCL
[1] = R/R DLBCL, monotherapy and combined with an anti-CD20 monoclonal antibody

## Polatuzumab vedotin
[1]
  complete remission (CR) rates: 0-15%
  overall response rates (ORR): 13-56%
In combination with an anti-CD20 monoclonal antibody (Morschhauser et al. 2014, ROMULUS)
  CR rate reported previously: 15%
